Assay results published in patent publication US12636311B2, “Topically administered strontium-containing complexes for treating pain, pruritis and inflammation” (Galleon Labs LLC, priority 2012, dated 2026).

Experiments:
brachioradial pruritus = experiment: Brachioradial pruritus, itch severity reported by subject; assay type: in vivo, human; conditions: topical treatment, moderate to severe itch
Source text: A person suffered from brachioradial pruritus for over 20 years, a neuropathic condition that is believed to be caused by compression of cervical nerves that innervate the mid-back and arms. They experienced moderate to severe itching typically most intense on their arms, neck and shoulders.
During the last several years, the subject treated their condition with either strontium alone (4% or 6% elemental strontium) and with a spray formulation of strontium+ Gallic Acid+ NAC. […] Reapplication 3 or 4 times over a 10-20 minute period increased that anti-itch benefit and reduced the itching by about 50%. […] If itching remained, a second spray eliminated the remaining itching.
Subsequent blinded tests were performed in which either 4% strontium only or 6% strontium only was directly compared to 4% strontium+ Gallic Acid+ NAC. Since the subject's brachioradial pruritus typically produced itching of approximately equal intensity on both arms in a bilaterally-symmetrical pattern, strontium alone was applied to one arm and strontium+ Gallic Acid+ NAC was applied to the contralateral arm in a double-blinded manner and itch severity was reported by the subject.

[1] = tested on: TCN activation by 70% glycolic acid peel; conditions: strontium mixed with 70% glycolic acid, pH 0.6; cited from earlier work
[2] = tested on: synchronous neurotransmitter release in response to TCN activation; conditions: strontium substitutes for calcium; cited from earlier work

Structure (SMILES) | Anti-itch benefit (in words) (brachioradial pruritus) | Suppression of burning pain and stinging [1] [%] | Reduction of amplitude of synchronous neurotransmitter release [2]
CN(C)CCOC(c1ccccc1)c1ccccc1 [diphenhydramine] | limited benefit only when the itching was mild |  | 
C[C@]12CCC(=O)C=C1CC[C@@H]1[C@@H]2[C@@H](O)C[C@@]2(C)[C@H]1CC[C@]2(O)C(=O)CO [hydrocortisone] | no anti-itch benefit |  | 
[Sr+2] [strontium] |  | ≥ 80 | more than 90%
